Experimental data reported in patent publication US11229651B2, “Prophylaxis and treatment of a neurodegenerative disease not based on a protein-folding disorder” (Eberhard Karls Universität Tübingen Medizinische Fakultät, priority 2013, dated 2022).

Columns and labels:
[1] = system: photoreceptors of cultivated retinas from wild-type rats; assay: TUNEL assay on retinal organ cultures from wild-type rats; format: cell-based, rat; conditions: for reduction of percentage of TUNEL positive cells in the ONL: WT cultivated retinas, compared with controls, FIG. 3B, **p<0.01, ***p<0.001; for survival of photoreceptors in radial sections: wild-type retinal organ cultures, compared with DMSO control, FIG. 2
[2] = system: photoreceptors of cultivated retinas from rats mutated in the rhodopsin (P23H); assay: TUNEL assay on retinal organ cultures from P23H rhodopsin transgenic rats; format: cell-based, rat; conditions: for amount of dying photoreceptors (percentage of TUNEL positive cells in the outer nuclear layer (ONL) vs total nuclei in the ONL): P23H mutant retinal cultures, PN9 + 6 days in vitro, compared with untreated and DMSO treated controls, FIG. 3A; for survival of photoreceptors in radial sections: P23H retinal organ cultures, compared with DMSO control, FIG. 2
Excerpt: Homozygous P23H rhodopsin transgenic rats (produced by Chrysalis DNX Transgenic Sciences, Princeton, N.J., United States of America) of the line Tg (P23H) 1 Lay (P23H-1) were kindly provided by Dr. M. M. LaVail (University of California, San Francisco, Calif., United States of America) and bred in the Animal Housing Facility in the Center for Ophthalmology in Tübingen. Heterozygous P23H rats were employed, obtained by crossing with wt, CD rats (CDH IGS rat; Charles River, Germany) to reflect the genetic background of autosomal-dominant retinitis pigmentosa (ADRP).
Retinas of postnatal day 9 (PN9) of P23H transgenic rats were cultivated for six days (DIVE) that correspond to PN15, i.e. the peak of degeneration in in vivo aged-matched mutants. The day of birth was denoted as P0. For radial sections, cultures were immersed in 4% paraformaldehyde in 0.1 M phosphate buffer (PB; pH 7.4) for 30 minutes at 4° C. and embedded in cryomatrix (Tissue-Tek, Leica, Bensheim, Germany). The radial sections (15 μm thick) were processed immediately or stored at […]
The retinas were isolated from nine-days-old P23H rats with the retinal pigment epithelium (RPE) attached essentially as described previously in Caffe et al. (2001), “Mouse retina explants after long-term culture in serum free medium”, J. Chem. Neuroanat. 22(4): 263-73, and Arango-Gonzalez et al. (2010), “In vivo and in vitro devel-opment of S- and M-cones in rat retina”, Invest. Ophthalmol. Vis. Sci. 2010 October; 51(10):5320-7. Briefly, the eyes of decapitated rats were enucleated in aseptic environment and pretreated with 12% proteinase K (ICN Biomedicals Inc., OH, United States of America) for 15 minutes at 37° C. in R16 serum-free culture medium (Invitrogen Life Technologies, Paisley, United Kingdom). The enzymatic digestion was stopped by the addition of 20% fetal bovine serum. Retina and RPE were dissected and four radial sections were made to flatten the tissue. The tissue was transferred to a 0.5 μm polycar-bonate membrane (Corning Life Sciences, Lowell, Mass., United States of America), with the RPE facing the membrane. The inserts were placed into six well culture plates and incubated with R16 nutrient medium at 36.5° C. The retina was left in R16 culture medium without a treatment for one day to allow an adaptation to the culture conditions. The medium was changed at DIV1, DIV3, and DIV5, and the new medium either contained ML240 (1 μM or […]) or EerII (1 μM or 20 μM). Both components were pre-diluted in dimethyl sulfoxide (DMSO, Sigma). For controls, the same amount of DMSO (0.05% or 1% respectively) was diluted in culture medium. The cultures were fixed at DIVE and analyzed as radial sections. […]

Row | Compound | reduction of percentage of TUNEL positive cells in the ONL [1] | survival of photoreceptors in radial sections [1] | amount of dying photoreceptors (percentage of TUNEL positive cells in the outer nuclear layer (ONL) vs total nuclei in the ONL) [2] | survival of photoreceptors in radial sections [2]
1 | CC1(C)C(N(O)C(=O)Nc2ccc(Cl)cc2)N(c2ccc(Cl)cc2)C(=O)N1CC(=O)N/N=C/C=C/c1ccc([N+](=O)[O-])o1 (centres unmarked) [EerI, Eeyarestatin I] | not significantly | significant increase of the survival | significantly reduce | significant increase of the survival
2 | COc1cccc2c(NCc3ccccc3)nc(-n3c(N)nc4ccccc43)nc12 [ML240] | significantly | significant increase of the survival | significantly reduce | significant increase of the survival
